Data published in patent publication US12263166B2, “Methods of treating cancers having a BRCA1 and/or BRCA2 mutation(s)” (Dana-Farber Cancer Institute, Inc., priority 2017, dated 2025).

Key:
[1] = tested on: UWB1.289 (BRCA1-mutant ovarian cancer cell line); experiment: Colony formation (sensitivity) assay in UWB1.289; format: cell-based; settings: BRCA1-mutant UWB1.289, compared to UWB1.289+BRCA1
Method: (§1) Cells were transfected with siRNA or plasmid 18-24 h before being plated for colony formation assays. Cells were counted and plated in triplicates in 6-well plates. For treatment with ML323, plated cells were allowed to adhere overnight before treatment with ML323 the next day. At the end of the experiment, cells were fixed with methanol for 10 min at −20° C. then stained with crystal violet. Quantification of cell growth area was performed with ImageJ.

[2] = tested on: BRCA1 deficient MDA-MB-436 cells; experiment: Replication combing (fiber) assay in MDA-MB-436 after hydroxyurea; format: cell-based; settings: 10 μM ML323 for 24 h; effect not increased with USP1 silencing
Method: FIG. 20B. Schematic of the experimental design for the fiber assay, graphical quantification of fiber assay measuring replication fork stability in MDA-MB-436 cells following treatment with either siCtrl or siUSP1, untreated or treated with 10 μM of ML323 for 24 h.
Replication combing assay was performed using the FiberComb machine (Genomic Vision, Bagneux, France). Br iefly, cells were treated with CldU, IdU then HU, with 3 PBS washes between each treatment. Cells were then trypsinized, counted and embedded in low melting point agarose plugs, then treated with proteinase k overnight. Agarose plugs were then washed and digested with agarase. Agarase-treated samples were then poured into FiberComb wells and combed onto silanized coverslips. Coverslips were probed with rat anti-BrdU antibody (clone BU1/75 (ICR1) specific to CldU, Life Technologies, Woburn, MA, #MA1-82088) and mouse anti-BrdU Antibody (specific to IdU, BD Biosciences, Woburn, MA, #347580) and visualized by fluorescence microscopy. Pictures were taken of at least 100 fibers per condition. Fibers were measured with ImageJ and graphed.

[3] = target: T1, wild-type, full-length USP1 (Homo sapiens, UniProt O94782); experiment: Ub-CHOP2 deubiquitination assay, WT-USP1; format: biochemical
T1 construct: purchased Boston Biochem / R&D systems E564
T1 sequence (O94782 1-785): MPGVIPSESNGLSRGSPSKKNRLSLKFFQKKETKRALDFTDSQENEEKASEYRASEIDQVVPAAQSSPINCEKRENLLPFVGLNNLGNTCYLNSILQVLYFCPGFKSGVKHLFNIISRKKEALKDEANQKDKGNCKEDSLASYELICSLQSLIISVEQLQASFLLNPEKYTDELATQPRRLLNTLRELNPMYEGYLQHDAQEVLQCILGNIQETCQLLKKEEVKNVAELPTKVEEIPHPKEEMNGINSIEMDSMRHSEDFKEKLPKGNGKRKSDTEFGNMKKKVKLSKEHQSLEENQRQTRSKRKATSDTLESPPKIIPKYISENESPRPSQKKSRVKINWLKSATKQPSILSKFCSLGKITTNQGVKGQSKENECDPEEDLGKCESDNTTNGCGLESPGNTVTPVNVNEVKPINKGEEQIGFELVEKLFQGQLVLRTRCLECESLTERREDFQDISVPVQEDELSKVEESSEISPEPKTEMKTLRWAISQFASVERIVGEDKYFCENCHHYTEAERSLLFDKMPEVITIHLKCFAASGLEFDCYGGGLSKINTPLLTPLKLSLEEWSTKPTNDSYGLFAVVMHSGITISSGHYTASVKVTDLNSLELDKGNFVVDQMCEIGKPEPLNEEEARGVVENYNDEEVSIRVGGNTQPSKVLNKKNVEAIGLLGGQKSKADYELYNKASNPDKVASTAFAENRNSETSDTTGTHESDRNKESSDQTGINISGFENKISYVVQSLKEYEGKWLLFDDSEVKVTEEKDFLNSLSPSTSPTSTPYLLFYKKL
Method: (§2) FIG. 11B. Ub-CHOP2 assay of WT-USP1 and Trunc-USP1 with and without USP1 inhibitor ML323.
(§3) Preparation of recombinant USP1 and UAF1 wild type and mutant proteins in SF9 cells and Ub-AMC assays were performed by the method as described in Cohn M A, Kowal P, et al. A UAF1-containing multisubunit protein complex regulates the Fanconi anemia pathway. Molecular cell. 2007; 28(5):786-97. Ub-CHOP2 assays (Life Sensors, Malvern, PA, PR1101) were performed according to manufacturer's instructions. Ub-AMC assays were performed by the methods as described in Cohn M A et al., UAF1 is a subunit of multiple deubiquitinating enzyme complexes. The Journal of biological chemistry. 2009; 284(8):5343-51; Cohn M A, et al. A UAF1-containing multisubunit protein complex regulates the Fanconi anemia pathway. Molecular cell. 2007; 28(5):786-97; Kee Y, et al., WDR20 regulates activity of the USP12 UAF1 deubiquitinating enzyme complex. Journal of Biological Chemistry. 2010; 285(15):11252-7; and Mistry H, Hsieh G, et al. Small-molecule inhibitors of USP1 target ID1 degradation in leukemic cells. Molecular cancer therapeutics. 2013; 12(12):2651-62.

USP1-Trunc = experiment: Ub-CHOP2 deubiquitination assay, Trunc-USP1; format: biochemical
Method: as §2, §3

[4] = target: T2, full-length USP1 / forked DNA (Homo sapiens, UniProt O94782); experiment: Electromobility shift assay of USP1 with forked DNA; format: binding; settings: 0-300 nM USP1, 0-1000 nM ML323, forked DNA
T2 construct: purchased Boston Biochem / R&D systems E564
T2 sequence (O94782 1-785): T1 sequence (O94782 1-785)
Method: FIG. 11C. Electromobility shift assay of 0-300 nM of USP1 incubated with 0-1000 nM of ML323 and forked DNA.
Recombinant USP1 and UAF1 proteins from R&D systems (E564, E566) were used for some electromobility shift assays and in vitro deubiquitination assays. Electromobility shift assays were performed by pre-incubating fluorophore (Cy3)-tagged DNA and purified protein in binding buffer (20 mM Hepes (pH 7.6), 0.1M KCl, 5 mM MgCl2, 3% (v/v) glycerol, 0.25 mg/ml BSA, 0.05 mM EDTA, 0.5 mM DTT, 0.01% (v/v) NP-40) for 30 min on ice. Samples were then loaded onto 6% polyacrylamide gels and ran at 65V in 0.5× TBE for 135 min at 4° C. Gels were visualized using the LAS-4000 imaging system (GE Healthcare Life Sciences, Pittsburgh, PA). DNA used for Ub-AMC, Ub-CHOP2 and electromobility shift assay were 40 bp in length and were designed to have minimal potential of secondary structure formation.

[5] = tested on: PARP inhibitor resistant UWB1.289 SYR14 cells; experiment: Clonogenic assay in PARP inhibitor resistant UWB1.289 SYR14; format: cell-based
Method: FIG. 23A. Quantification of colonies after clonogenic assay of parental BRCA1-deficient UWB1.289 cells and PARP inhibitor resistant UWB1.289 SYR14 cells treated with USP1 inhibitor ML323.
as §1

[6] = tested on: PARP inhibitor resistant BRCA1-deficient cells (53BP1 silencing); experiment: Sensitivity of PARP inhibitor resistant cells with restored HR (53BP1 silencing); format: cell-based
USP1 = target: T3, USP1 (Homo sapiens, UniProt O94782); experiment: Western blot of USP1 with and without ML323; format: cell-based
T3 construct: endogenous in cells
T3 sequence (Q8TAF3 whole entry partner, one chain of several): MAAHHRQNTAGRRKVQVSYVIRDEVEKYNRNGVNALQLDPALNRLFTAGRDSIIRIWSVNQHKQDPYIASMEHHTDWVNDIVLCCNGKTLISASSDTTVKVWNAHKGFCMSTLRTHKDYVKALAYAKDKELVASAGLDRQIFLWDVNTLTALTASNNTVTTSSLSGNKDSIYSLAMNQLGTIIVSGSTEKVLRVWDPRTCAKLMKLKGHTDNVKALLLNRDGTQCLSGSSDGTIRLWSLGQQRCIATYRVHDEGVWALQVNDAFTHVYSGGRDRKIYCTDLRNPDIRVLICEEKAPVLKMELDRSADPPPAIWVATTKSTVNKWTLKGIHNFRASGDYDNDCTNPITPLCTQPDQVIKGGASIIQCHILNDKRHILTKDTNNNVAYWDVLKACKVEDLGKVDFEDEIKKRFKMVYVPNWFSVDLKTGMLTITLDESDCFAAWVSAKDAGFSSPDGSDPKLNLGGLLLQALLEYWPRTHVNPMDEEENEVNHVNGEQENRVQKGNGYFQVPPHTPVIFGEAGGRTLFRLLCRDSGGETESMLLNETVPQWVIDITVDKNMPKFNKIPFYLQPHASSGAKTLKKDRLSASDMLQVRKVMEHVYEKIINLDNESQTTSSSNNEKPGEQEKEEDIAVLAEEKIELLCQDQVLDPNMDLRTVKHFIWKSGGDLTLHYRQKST
Method: FIG. 8F. Western blot of USP1 with and without ML323 treatment. Following inhibition of USP1 deubiquitinating enzyme (DUB) activity, USP1 autocleavage is inhibited, resulting in a more intense top USP1 band. In addition, Ser313 phosphorylation is induced, resulting in a higher MW band in the blot.
Cells were lysed with lysis buffer (300 mM NaCl, 50 mM Tris-Cl, 1 mM EDTA, 0.5% NP-40), lysates resolved on denaturing Nupage (Invitrogen, Carlsbad, CA) polyacrylamide gels and transferred onto nitrocellulose membranes. Membranes were blocked with 5% milk in TBST, and probed with primary and secondary antibodies respectively, then detected with chemiluminescence (Western Lightning, Perkin Elmer, Waltham, MA).

[7] = tested on: BRCA1-deficient UWB1.289 cells; experiment: Colony assay, ML323 combined with Olaparib in UWB1.289; format: cell-based; settings: 0 nM or 25 nM Olaparib and increasing doses of ML323
Method: FIG. 14. USP1 inhibition is non-epistatic with PARP inhibitors in BRCA1 deficient cells (Top: BRCA1-deficient UWB1.289 cells treated with 0 nM or 25 nM of Olaparib and increasing doses of USP1 inhibitor ML323. Bottom: Representative pictures of UWB1.289 colonies).
as §1

FANCD2-Ub = settings: cited from earlier work

Question: Which “growth of UWB1.289 cells” value [1] does the source give for `Cc1cnc(-c2ccccc2C(C)C)nc1NCc1ccc(-n2ccnn2)cc1` [ML323] here?
Answer: The value was “reduced growth”.

Question: What about the “fork degradation following hydroxyurea treatment” value [2] of the same compound?
Answer: The value was “enhanced fork degradation”.

Question: And the “DUB activity of wild-type, full-length USP1” value [3]?
Answer: Its value is “inhibits”.

Question: And the “DUB activity of USP1-Trunc” value (USP1-Trunc)?
Answer: The value was “inhibits”.

Question: What about the “DNA binding activity of full-length USP1” value [4] of the same compound?
Answer: The value was “does not interfere”.

Question: And the “sensitivity of PARP inhibitor resistant cells resulting from fork stabilization” value [5]?
Answer: Its value is “remained sensitive”.

Question: And the “sensitivity of PARP inhibitor resistant cells resulting from restoration of HR” value [6]?
Answer: The value was “resistant”.

Question: And the “USP1 Ser313 phosphorylation” value (USP1)?
Answer: The value was “induced”.

Question: What about the USP1 autocleavage (USP1) of the same compound?
Answer: Its USP1 autocleavage is “inhibited”.

Question: What about the “interaction of USP1 inhibition with PARP inhibitors in BRCA1 deficient cells” value [7] of the same compound?
Answer: Its value is “non-epistatic”.

Question: And the FANCD2 deubiquitination (FANCD2-Ub)?
Answer: The FANCD2 deubiquitination was “blocks”.

Question: What about the “cellular FANCD2-Ub level” value (FANCD2-Ub) of the same compound?
Answer: Its value is “accumulation”.
